Experimental data reported in paper PMC9672040, “Identification of purine biosynthesis as an NADH-sensing pathway to mediate energy stress” (Nature Communications, 2022).
Read-outs that look alike come from different tables or passages of the source.

Columns and labels:
[1] = molecular target: T1, PRPS2 (Homo sapiens, UniProt P11908); test: biochemical; design: PRPS1/2 activity by ATP consumption, Kinase-Glo luminescence
T1 construct: His-tagged, pET-28a, expressed in E. coli BL21, Ni-Sepharose purified; the AlphaFold id for docking (AF-P60891-F1) is that of PRPS1
T1 sequence (P11908 2-318): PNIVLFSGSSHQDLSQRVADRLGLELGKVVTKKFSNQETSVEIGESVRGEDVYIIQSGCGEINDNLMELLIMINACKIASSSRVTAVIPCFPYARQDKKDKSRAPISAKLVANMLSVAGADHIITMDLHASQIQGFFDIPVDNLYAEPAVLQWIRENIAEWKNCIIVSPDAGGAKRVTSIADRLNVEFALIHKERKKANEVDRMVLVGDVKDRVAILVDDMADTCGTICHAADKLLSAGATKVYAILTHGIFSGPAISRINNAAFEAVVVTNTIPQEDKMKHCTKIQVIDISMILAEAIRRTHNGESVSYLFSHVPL

[2] = molecular target: T2, PRPS1 (Homo sapiens, UniProt P60891); test: biochemical; design: PRPS1/2 activity by ATP consumption, Kinase-Glo luminescence
T2 construct: His-tagged, pET-28a, expressed in E. coli BL21, Ni-Sepharose purified
T2 sequence (P60891 2-318): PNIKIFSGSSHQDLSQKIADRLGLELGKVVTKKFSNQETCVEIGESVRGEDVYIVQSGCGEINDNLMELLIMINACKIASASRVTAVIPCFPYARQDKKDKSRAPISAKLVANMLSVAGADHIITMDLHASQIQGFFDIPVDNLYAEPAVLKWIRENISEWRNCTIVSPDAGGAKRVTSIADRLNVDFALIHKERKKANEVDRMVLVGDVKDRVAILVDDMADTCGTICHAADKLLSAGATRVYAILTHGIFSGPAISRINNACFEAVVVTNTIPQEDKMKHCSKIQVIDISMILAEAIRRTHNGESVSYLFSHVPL

[3] = molecular target: T2, PRPS1; test: ATP consumption, Kinase-Glo; format: biochemical; settings: 300 µM ATP, 300 µM R-5-P, 5 mM MgCl2, 5 mM Na3PO4, pH 7.5, 37 °C; allosteric effector
[4] = molecular target: T1, PRPS2; test: ATP consumption, Kinase-Glo; format: biochemical; settings: 300 µM ATP, 300 µM R-5-P, 5 mM MgCl2, 5 mM Na3PO4, pH 7.5, 37 °C; allosteric effector
[5] = test system: T3, EcSTH-LbNOX; test: thio-NAD+ reduction at […] nm / NADPH depletion at […] nm; format: biochemical, Escherichia coli; settings: 50 mM Tris-HCl pH 7.5, 10 μM FAD, 35 °C, EcSTH site
T3 construct: gene sthA; single-chain fusion EcSTH-Flag-LbNOX, three tandem Flag peptides as linker, expressed in HeLa cells, anti-Flag M2 purified; with NADH oxidase (water-forming)

[6] = molecular target: T1, PRPS2; test: SPR (Biacore T200), His-PRPS2 immobilized on CM5 chip; format: binding; settings: read-out: dissociation constant
[7] = test system: T4, HeLa Tet-on EcSTH-LbNOX; test: cells; design: Sensitivity of HeLa cells to menadione, proliferation after 48 h; settings: Homo sapiens, 48 h, Dox-, read-out: IC50 menadione
T4 construct: HeLa with inducible Tet-on EcSTH-LbNOX, not induced

[8] = test system: T5, HeLa Tet-on EcSTH; test: cells; design: Sensitivity of HeLa cells to menadione, proliferation after 48 h; settings: Homo sapiens, 48 h, Dox-, read-out: IC50 menadione
T5 construct: HeLa with inducible Tet-on EcSTH, not induced
Procedure: From top to bottom: **P < 0.0001, **P < 0.0001, **P < 0.0001, two-way ANOVA. d Effects of EGFP, EcSTH, LbNOX, or EcSTH-LbNOX expression on colony formation in HeLa cells cultured with Dox, as indicated, for 10 days (n = 3 biologically independent samples). From left to right: *P = 0.013, **P = 0.0001, **P = 6.58e-07, two-tailed Student’s t-tests. e The in vivo tumor growth of HeLa cells expressing inducible Tet-on EcSTH or EcSTH-LbNOX (n = 5 biologically independent animals). 2 mg/mL Dox was added in drinking water on day 10 and updated every two days. **P < 0.0001, two-way ANOVA. f Effects of α-KB treatment on proliferation of HeLa^Tet-on EcSTH cells. Cells were counted after treatment with Dox (1 µg/mL) and α-KB (1 or 2 mM) for 48 h (n = 4 biologically independent samples). From left to right: **P = 2.44e-06, **P = 1.85e-06, two-tailed Student’s t-tests. g Effects of inhibitors on proliferation of HeLa^Tet-on EcSTH cells. Cells were pretreated with the indicated inhibitors for 2 h, and cells were counted after treatment with Dox (1 µg/mL) for 48 h (n = 3 biologically independent samples). z-VAD (z-VAD-FMK, 20 µM), NSA (necrosulfonamide, 10 µM), Ferr-1 (Ferrostain-1, 5 µM). […] Cell apoptosis was measured by Flow cytometry after treatment with Dox (1 µg/mL) and α-KB (2 mM) for 24 h (n = 3 biologically independent samples). […]

[9] = substrate: NC(=O)C1=CN([C@@H]2O[C@H](COP(=O)(O)OP(=O)(O)OC[C@H]3O[C@@H](n4cnc5c(N)ncnc54)[C@H](O)[C@@H]3O)[C@@H](O)[C@H]2O)C=CC1; test: purified protein; settings: 50 mM Tris-HCl pH 7.5, 10 μM FAD, 35 °C
[10] = substrate: NC(=S)c1ccc[n+]([C@@H]2O[C@H](COP(=O)(O)OP(=O)(O)OC[C@H]3O[C@@H](n4cnc5c(N)ncnc54)[C@H](O)[C@@H]3O)[C@@H](O)[C@H]2O)c1; test: purified protein; format: biochemical, Escherichia coli; settings: 400 µM NADPH, 50 mM Tris-HCl pH 7.5, 10 μM FAD, 35 °C
[11] = substrate: NC(=O)C1=CN([C@@H]2O[C@H](COP(=O)(O)OP(=O)(O)OC[C@H]3O[C@@H](n4cnc5c(N)ncnc54)[C@H](OP(=O)(O)O)[C@@H]3O)[C@@H](O)[C@H]2O)C=CC1; test: purified protein; format: biochemical, Escherichia coli; settings: 400 µM thio-NAD+, 50 mM Tris-HCl pH 7.5, 10 μM FAD, 35 °C

Nc1ncnc2c1ncn2[C@@H]1O[C@H](COP(=O)(O)OP(=O)(O)O)[C@@H](O)[C@H]1O [ADP]
IC50 ([1]; read-out: IC50 of ADP (PRPS2)): 77.4 µM | IC50 ([2]; read-out: IC50 of ADP (PRPS1)): 41.3 µM

Nc1nc2c(ncn2[C@@H]2O[C@H](COP(=O)(O)OP(=O)(O)O)[C@@H](O)[C@H]2O)c(=O)[nH]1 [GDP]
ATP consumption, Kinase-Glo [3]: NADH and NAD^+ exerted no effect on the suppression of PRPS1 by ADP or GDP | IC50 ([1]; read-out: IC50 of GDP (PRPS2)): 251 µM | ATP consumption, Kinase-Glo [4]: protected PRPS2 against inhibition by ADP, but not against that by GDP | IC50 ([2]; read-out: IC50 of GDP (PRPS1)): 171 µM

NC(=O)C1=CN([C@@H]2O[C@H](COP(=O)(O)OP(=O)(O)OC[C@H]3O[C@@H](n4cnc5c(N)ncnc54)[C@H](OP(=O)(O)O)[C@@H]3O)[C@@H](O)[C@H]2O)C=CC1 [NADPH]
Km ([5]; 400 µM thio-NAD+): 194 µM

NC(=O)C1=CN([C@@H]2O[C@H](COP(=O)(O)OP(=O)(O)OC[C@H]3O[C@@H](n4cnc5c(N)ncnc54)[C@H](O)[C@@H]3O)[C@@H](O)[C@H]2O)C=CC1 [NADH]
Kd [6]: 118 µM

NC(=S)c1ccc[n+]([C@@H]2O[C@H](COP(=O)(O)OP(=O)(O)OC[C@H]3O[C@@H](n4cnc5c(N)ncnc54)[C@H](O)[C@@H]3O)[C@@H](O)[C@H]2O)c1 [thio-NAD^+]
Km ([5]; 400 µM NADPH): 272 µM

CC1=CC(=O)c2ccccc2C1=O [Menadione]
IC50 [7]: 27.4 µM | IC50 [8]: 27.8 µM

B1: LbNOX (Levilactobacillus brevis ATCC 367) (protein)
chain: MKVTVVGCTHAGTFAIKQILAEHPDAEVTVYERNDVISFLSCGIALYLGGKVADPQGLFYSSPEELQKLGANVQMNHNVLAIDPDQKTVTVEDLTNHAQTTESYDKLVMTSGSWPIVPKIPGIDSDRVKLCKNWAHAQALIEDAKEAKRITVIGAGYIGAELAEAYSTTGHDVTLIDAMARVMPKYFDADFTDVIEQDYRDHGVQLALGETVESFTDSATGLTIKTDKNSYETDLAILCIGFRPNTDLLKGKVDMAPNGAIITDDYMRSSNPDIFAAGDSAAVHYNPTHQNAYIPLATNAVRQGILVGKNLVKPTVKYMGTQSSSGLALYDRTIVSTGLTLAAAKQQGLNAEQVIVEDNYRPEFMPSTEPVLMSLVFDPDTHRILGGALMSKYDVSQSANTLSVCIQNENTIDDLAMVDMLFQPNFDRPFNYLNILAQAAQAKVAQSVNA
Km [9]: 88.73 µM | kcat [9]: 836.55 s⁻¹

B2: EcSTH (Escherichia coli K-12) (protein)
chain: PHSYDYDAIVIGSGPGGEGAAMGLVKQGARVAVIERYQNVGGGCTHWGTIPSKALRHAVSRIIEFNQNPLYSDHSRLLRSSFADILNHADNVINQQTRMRQGFYERNHCEILQGNARFVDEHTLALDCPDGSVETLTAEKFVIACGSRPYHPTDVDFTHPRIYDSDSILSMHHEPRHVLIYGAGVIGCEYASIFRGMDVKVDLINTRDRLLAFLDQEMSDSLSYHFWNSGVVIRHNEEYEKIEGCDDGVIMHLKSGKKLKADCLLYANGRTGNTDSLALQNIGLETDSRGQLKVNSMYQTAQPHVYAVGDVIGYPSLASAAYDQGRIAAQALVKGEATAHLIEDIPTGIYTIPEISSVGKTEQQLTAMKVPYEVGRAQFKHLARAQIVGMNVGTLKILFHRETKEILGIHCFGERAAEIIHIGQAIMEQKGGGNTIEYFVNTTFNYPTMAEAYRVAALNGLNRLF
notes: C-terminal Flag tag (EcSTH-Flag), human-codon cDNA, expressed in HeLa cells, anti-Flag M2 purified
Km [10]: 242.8 µM | kcat [10]: 82.73 s⁻¹ | Km [11]: 137.1 µM | kcat [11]: 81.73 s⁻¹
